Experimental data reported in patent publication US4267184A, “Antiinflammatory 4,5-diaryl-2-(substituted-thio)pyrroles and their corresponding sulfoxides and sulfones” (E. I. Du Pont de Nemours and Company, priority 1980, dated 1981).

Tests used:
[1] = system: phenylquinone writhing in mice; assay: Phenylquinone Writhing Test (analgesic activity); format: in vivo, female white mice; details: Mus musculus, oral, phenylquinone i.p., effective analgesic dose for 50% of the mice
Excerpt: A procedure for detecting and comparing the analgesic activity of compounds in this series and standard drugs for which there is a good correlation with human efficacy is the phenylquinone writhing test.
(§1) The test procedures employed for determining antiinflammatory and analgesic activity are described below with test data included in Tables VII and VIII.
The phenylquinone writhing test, modified from Siegmund, et al., Proc. Soc. Exp. Biol. Med. 95, 729 (1957), was employed. A test compound suspended in 1% methylcellulose was given orally to fasted (17-21 hours) female white mice, 5-20 animals per double blind test. Aqueous (0.01% phenyl-p-benzoquinone) phenylquinone was injected intraperitoneally at 24 minutes later using 0.20 ml per mouse. […] The effective analgesic dose for 50% of the mice (ED50) was calculated by the moving average method of Thompson, W. R., Bact. Rev. 11, 115-145 (1947).

[2] = system: Adjuvant-Induced Arthritis in Rats; assay: Established Adjuvant-Induced Arthritis in Rats; format: in vivo, Charles River Lewis male rats; details: for ED50: 168 h, oral gavage daily for 7 days, ED50% decrease from control paw volume
Procedure: A procedure for detecting and comparing the antiinflammatory activity of compounds in this series and standard drugs for which there is a good correlation with human efficacy is the adjuvant-induced arthritis test in rats.
as §1
Charles River Lewis male rats (130-150 grams) are injected subcutaneously in plantar area of the right hind paw with 0.1 ml of adjuvant (Difco heat-killed, lyophilized Mycobacterium butyricum suspended in mineral oil 5 mg/ml). 20 Non-arthritic controls are injected with mineral oil. The animals are held for 2 weeks to allow development of arthritis. Paw volumes (uninjected, left hind paw) are measured and the adjuvant injected rats are culled and distributed to treatment groups of 10 of equal disease severity. Non-arthritic controls are distributed to 2 groups of 10. The rats are given oral doses of compound or PVA-Acacia (Polyvinyl Alcohol 1%, Gum Acacia, U.S.P. 5%, Methylparaben 0.5%) (10 ml/kg) by gavage on that day and on the 6 following days. One day after the last dose the paw volumes (uninjected, left hind paw) are measured using a Ugo Basile Volume Differential Meter Model 7101. [formula]
Dose-response regression lines of the % decrease are plotted on semi-log paper by visual fit and the ED50% decrease from control paw volume is determined by inspection.

[3] = Rattus norvegicus, Table VII, oral, read-out: percent reduction in paw volume at the indicated dose

SMILES	ED50 ([1]; Table VII) [mg/kg]	ED50 ([2]; Rattus norvegicus, Table VII) [mg/kg]	ED50 ([1]; Table VIII) [mg/kg]	ED50 ([2]; Rattus norvegicus, Table VIII) [mg/kg]	other results
COc1ccc(-c2[nH]c(SC)cc2-c2ccc(F)cc2)cc1 [Example 45]	78	37	–	–	–
[O-][S+](c1cc(-c2ccc(F)cc2)c(-c2ccc(F)cc2)[nH]1)C(F)(F)F (stereo not shown) [Example 57]	> 135	1	–	–	–
[O-][S+](c1cc(-c2ccc(Cl)cc2)c(-c2ccc(Cl)cc2)[nH]1)C(F)(F)F (stereo not shown) [Example 59]	> 135	2.7	–	–	–
FC(F)(F)Sc1cc(-c2ccccc2)c(-c2ccc(Cl)cc2)[nH]1 [Example 24]	–	–	> 135	10	–
COc1ccc(-c2cc(SC(F)(F)F)[nH]c2-c2cccs2)cc1 [Example 18]	–	–	78	~100	–
Cc1ccc(-c2cc(SC(F)(F)F)[nH]c2-c2ccc(C)cc2)cc1 [Example 12]	16.2	25	–	–	–
Fc1ccc(-c2[nH]c(SC(F)(F)F)cc2-c2ccc(Cl)cc2)cc1 [Example 6]	> 108	2	–	–	–
Fc1ccc(-c2cc(SC(F)(F)F)[nH]c2-c2ccc(F)cc2)cc1 [Example 3, 4,5-bis(4-fluorophenyl)-2-(trifluoromethylthio)pyrrole]	> 135	1.5	–	–	–
Fc1ccc(-c2cc(SC(F)(F)F)[nH]c2-c2ccc(Br)cc2)cc1 [Example 21]	–	–	> 108	3.5	–
CS(=O)(=O)c1cc(-c2ccc(F)cc2)c(-c2ccc(F)cc2)[nH]1 [Example 64]	> 108	–	–	–	inhibition in vivo at 27 mg/kg [2, 3]: 25%
Fc1ccc(-c2cc(SC(F)(F)F)[nH]c2-c2ccccc2)cc1 [Example 10]	> 108	–	–	–	inhibition in vivo at 27 mg/kg [2, 3]: 22%
FC(F)(F)Sc1cc(-c2ccc(Cl)cc2)c(-c2ccc(Cl)cc2)[nH]1 [Example 4]	> 130	2.8	–	–	–
FC(F)(F)Sc1cc(-c2cccc(Cl)c2)c(-c2cccc(Cl)c2)[nH]1 [Example 25]	–	–	> 108	25	–
Cn1c(SC(F)(F)F)cc(-c2ccc(F)cc2)c1-c1ccc(F)cc1 [Example 74, 1-Methyl-4,5-bis(4-fluorophenyl)-2-(trifluoromethylthio)pyrrole]	–	–	> 108	1.1	–
CS(=O)(=O)c1cc(-c2ccc(F)cc2)c(-c2ccc(Cl)cc2)[nH]1 [Example 67]	38	50	–	–	–
FC(F)(F)Sc1cc(-c2ccccc2)c(-c2cccnc2)[nH]1 [Example 17]	–	–	> 108	1.4	–
COc1ccc(-c2cc(S(=O)(=O)C(F)(F)F)[nH]c2-c2ccc(OC)cc2)cc1 [Example 53]	78	–	–	–	inhibition in vivo at 9 mg/kg [2, 3]: 36%
COc1ccc(-c2[nH]c(SC(F)(F)F)cc2-c2ccc(F)cc2)cc1 [Example 8]	26	30	–	–	–
Fc1cccc(-c2cc(SC(F)(F)F)[nH]c2-c2cccc(F)c2)c1 [Example 13]	> 108	–	–	–	inhibition in vivo at 27 mg/kg [2, 3]: 33%
Fc1ccc(-c2[nH]c(SC(F)(F)F)cc2-c2ccccc2)cc1 [Example 23]	–	–	> 108	–	Adjuvant Arthritis, value in parenthesis (percent reduction in paw volume/dose) ([2]; Table VIII, oral, dose 27 (unit not given)): 27%
CCCc1c(SC(F)(F)F)[nH]c(-c2ccc(F)cc2)c1-c1ccc(F)cc1 [Example 33]	–	–	> 108	6.5	–
CSc1cc(-c2ccc(F)cc2)c(-c2ccc(Cl)cc2)[nH]1 [Example 44]	> 108	25	–	–	–
CCOC(=O)n1c(SC(F)(F)F)cc(-c2ccc(F)cc2)c1-c1ccc(F)cc1 [Example 75, 1-Ethoxycarbonyl-4,5-bis(4-fluorophenyl)-2-(trifluoromethylthio)pyrrole]	–	–	> 108	1.9	–
FC(F)C(F)(F)Sc1cc(-c2ccc(Cl)cc2)c(-c2ccc(Cl)cc2)[nH]1 [Example 40]	> 108	–	–	–	inhibition in vivo at 9 mg/kg [2, 3]: 36%

SMILES	ED50 ([1]; Table VII) [mg/kg]	ED50 ([2]; Rattus norvegicus, Table VII) [mg/kg]	ED50 ([1]; Table VIII) [mg/kg]	ED50 ([2]; Rattus norvegicus, Table VIII) [mg/kg]	other results
Cc1c(SC(F)(F)F)[nH]c(-c2ccc(Cl)cc2)c1-c1ccc(Cl)cc1 [Example 30]	–	–	> 108	2	–
CCOc1ccc(-c2[nH]c([S+]([O-])C(F)(F)F)cc2-c2ccc(F)cc2)cc1 (stereo not shown) [Example 61]	> 130	–	–	–	inhibition in vivo at 9 mg/kg [2, 3]: 14%
Cc1c(SC(F)(F)F)[nH]c(-c2ccc(F)cc2)c1-c1ccc(F)cc1 [Example 31]	–	–	> 135	0.6	–
[O-][S+](c1cc(-c2ccccc2)c(-c2ccccc2)[nH]1)C(F)(F)F (stereo not shown) [Example 52]	30	–	–	–	inhibition in vivo at 25 mg/kg [2, 3]: 31%
CS(=O)(=O)c1cc(-c2ccc(Cl)cc2)c(-c2ccc(Cl)cc2)[nH]1 [Example 62]	> 108	1.5	–	–	–
O=S(=O)(c1cc(-c2ccccc2)c(-c2ccccc2)[nH]1)C(F)(F)F [Example 51]	15	–	–	–	inhibition in vivo at 25 mg/kg [2, 3]: 46%
CSc1ccc(-c2[nH]c(SC(F)(F)F)cc2-c2ccc(F)cc2)cc1 [Example 26]	–	–	> 108	0.6	–
CSc1cc(-c2ccc(Cl)cc2)c(-c2ccc(F)cc2)[nH]1 [Example 43]	> 108	20	–	–	–
Cc1ccc(-c2cc(S(C)(=O)=O)[nH]c2-c2ccc(C)cc2)cc1 [Example 72]	7.2	90	–	–	–
CCS(=O)(=O)c1cc(-c2ccc(Cl)cc2)c(-c2ccc(Cl)cc2)[nH]1 [Example 65]	> 108	–	–	–	inhibition in vivo at 27 mg/kg [2, 3]: 23%
FC(F)(F)Sc1cc(-c2ccccc2)c(-c2ccc(Cl)c(Cl)c2)[nH]1 [Example 16]	> 108	2.5	–	–	–
CS(=O)(=O)c1ccc(-c2[nH]c(SC(F)(F)F)cc2-c2ccc(F)cc2)cc1 [Example 29]	–	–	> 108	0.15	–
CS(=O)(=O)c1cc(-c2ccc(Cl)cc2)c(-c2ccccc2)[nH]1 [Example 71]	> 108	–	–	–	inhibition in vivo at 27 mg/kg [2, 3]: 23%
COc1ccc(-c2[nH]c(S(C)(=O)=O)cc2-c2ccc(Cl)cc2)cc1 [Example 69]	38	13	–	–	–
CN(C)c1ccc(-c2[nH]c(SC(F)(F)F)cc2-c2ccc(F)cc2)cc1 [Example 22]	–	–	> 108	8.8	–
Cc1c(SC(F)(F)F)[nH]c(-c2ccccc2)c1-c1ccccc1 [Example 15]	–	–	> 108	7.5	–
CCOc1ccc(-c2[nH]c(SC(F)(F)F)cc2-c2ccc(F)cc2)cc1 [Example 5]	> 130	–	–	–	inhibition in vivo at 27 mg/kg [2, 3]: 19%
Fc1ccccc1-c1cc(SC(F)(F)F)[nH]c1-c1ccccc1F [Example 19]	–	–	> 108	–	Adjuvant Arthritis, value in parenthesis (percent reduction in paw volume/dose) ([2]; Table VIII, oral, dose 45 (unit not given)): 29%
FC(F)(F)Sc1cc(-c2ccc(Cl)cc2)c(-c2ccccc2)[nH]1 [Example 11]	> 108	25	–	–	–
COc1ccc(-c2cc(SC)[nH]c2-c2ccc(OC)cc2)cc1 [Example 36]	> 130	5	–	–	–
O=S(=O)(c1ccccc1)n1c(SC(F)(F)F)cc(-c2ccc(F)cc2)c1-c1ccc(F)cc1 [Example 77]	–	–	–	–	Adjuvant Arthritis, value in parenthesis (percent reduction in paw volume/dose) ([2]; Table VIII, oral, dose 9.0 (unit not given)): 37%
COc1ccc(-c2[nH]c(SC(F)(F)F)c(C)c2-c2ccc(OC)cc2)cc1 [Example 32]	–	–	–	2.2	–
CSc1cc(-c2ccc(F)cc2)c(-c2ccccc2)[nH]1 [Example 47]	–	–	–	–	inhibition in vivo at 200 mg/kg ([2]; Rattus norvegicus, Table VII, oral, dose 200 mg/kg, read-out: percent reduction in paw volume at the indicated dose): 46%
